For orientation: IC50 means the midpoint of a concentration-inhibition curve.

In one experiment the target is T1, ENL YEATS domain (Homo sapiens, UniProt Q03111).
T1 construct: ENL Protein (6×HIS ENL YEATS Domain, EpiCypher, 15-0069); purchased EpiCypher 15-0069
T1 sequence (Q03111 1-138 limits assumed): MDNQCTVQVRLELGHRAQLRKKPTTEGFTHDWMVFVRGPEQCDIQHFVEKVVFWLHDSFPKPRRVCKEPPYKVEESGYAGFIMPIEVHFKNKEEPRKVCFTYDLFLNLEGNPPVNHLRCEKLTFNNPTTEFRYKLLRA
Briefly: TR-FRET ENL Screening Assay. The settings on record: 6×HIS ENL YEATS domain binding to biotinylated H3K9cr peptide (aa1-20). As for the experimental part: Compounds of the invention were tested in a TR-FRET ENL Screening Assay. TR-FRET (time-resolved fluorescence energy transfer) can be used to quantify ENL YEATS domain binding to a crotonylated histone peptide (H3K9cr, aa1-20). Streptavidin-Europium (Eu) chelate binds the biotinylated peptide, while Anti-6×HIS ULight™ binds 6×HIS-ENL. When Eu chelate is excited at 320 nm, fluorescence resonance energy transfer (FRET) occurs if Eu and ULight are made proximal by ENL binding to the acyl-peptide. ULight emission (FRET) is measured at 665 nm and normalized to the Eu emission at 615 nm to reduce variability between wells.
Compounds of the invention were dissolved in DMSO at a concentration of 3 mM with subsequent dilutions in assay buffer (50 mM HEPES PH 7.0, 150 mM NaCl, 0.05% BSA, 0.2% Pluronic F-127) such that the assay contained 1% DMSO. In a white 384 shallow well Microplate (Proxiplate-384 Plus, PerkinElmer, 6008280), 150 nL of compound or vehicle (1% DMSO in assay buffer) for the high control (HC) wells and 5 μL of 30 nM ENL Protein (6×HIS ENL YEATS Domain, EpiCypher, 15-0069) were combined and incubated 15 minutes at RT. Low control (LC) wells received 5 μL of assay buffer instead of ENL protein. Then 5 μL of 15 nM H3K9cr peptide (H3 aa1-20, biotinylated; EpiCypher, 12-0099) in assay buffer was added and incubated 30 minutes at RT. Finally, a 5 L mix of 45 nM Anti-6HIS ULight (PerkinElmer, TRF0105) and 1.5 nM Streptavidin-Europium Chelate (PerkinElmer, AD0060) were added and incubated for a further 30 minutes at RT. The TR-FRET signal (665 nm signal/615 nm signal×10,000) was measured using a PerkinElmer 2104 EnVision (Xenon Flash Lamp excitation, 320 nm±37.5 nm excitation filter, 407 nm cut off dichroic mirror, 615 nm±4.25 (Europium) nm and 665 nm+3.75 nM (ULight) emission filters). Compound concentration response curves were performed in duplicate over the concentration range of 0.15 nM-30 μM. The response at each compound concentration minus the LC value was converted to percent inhibition of the vehicle control group response (HC-LC).
In general terms: Time-resolved FRET reads energy transfer from a long-lived donor to a nearby acceptor.

The subject of experiment [1] is MV4:11 (MLL-AF4 MLL) cells. Description: Cell viability assay (CellTiter-Glo), 12 days. The experiment is classed as cell-based. The settings on record: Homo sapiens, 288 h, MV4:11 cells, cells split on days 4 and 8, CellTiter-Glo readout, read-out: MV4:11, 12 Day IC50. As for the experimental part: Cell-based assays were used to assess the ability of test compounds to reduce cell viability in both MV4:11 (MLL-AF4 MLL) and K562 cells, which were cultured in Iscove's Modified Dulbecco's medium (Gibco, 12440061) containing 10% FBS. The assays were conducted over 12 days and the cells being split on days 4 and 8. Compound concentration response curves were performed in duplicate over the concentration range of 0.15 nM-30 μM. On day 0, the compounds or vehicle were plated in a 300 nL directly into 96 well cell culture plates (Corning, 3599) with 5000 cells/well in a volume of 100 μL. Blank wells received cell culture medium. Plates were incubated for 4 days at 37° C. with 5% CO2. On days 4 and day 8 the cells were split and incubated for a further 4 days whilst an aliquot of cells were taken for the CTG readout. For the cell splitting, 270 nL of compounds or DMSO was added to a new 96 well cell culture plate to which 90 μL of medium plus 10 μL of cells from the original assay plate (after mixing) or 100 μL of medium (Blank wells) was added. This was repeated on day 8.
Cell viability was assessed using the CellTiter-Glo® homogeneous luminescent assay kit (Promega, G9243), according to the manufacturer's instructions. This quantifies ATP, which indicates the presence of metabolically active cells. On days 4, 8 and 12, 20 μl of the remaining cell suspension was aspirated into 384-well plate (Corning 3570) to which an equal volume CellTiter-Glo reagent was. Plates were incubated for 10 minute incubation at RT prior to recording the luminescence signal using EnVision plate reader (PE, 2104). The resulting data were analyzed as follows:
where vehicle are cells treated with 0.3% DMSO, Blank is culture medium. IC50 determinations were calculated by fitting the curve using XLfit (v5.3.1.3): Y=Bottom+(Top−Bottom)/(1+10^((Log IC50−X)*HillSlope)).
(In general: Cellular ATP, detected with luciferase, serves as a proxy for viable cell number.)

The next experiment deals with T2, FLT3 (Homo sapiens, UniProt P36888).
T2 construct: purchased Carna 08-154
T2 sequence (P36888 27-993): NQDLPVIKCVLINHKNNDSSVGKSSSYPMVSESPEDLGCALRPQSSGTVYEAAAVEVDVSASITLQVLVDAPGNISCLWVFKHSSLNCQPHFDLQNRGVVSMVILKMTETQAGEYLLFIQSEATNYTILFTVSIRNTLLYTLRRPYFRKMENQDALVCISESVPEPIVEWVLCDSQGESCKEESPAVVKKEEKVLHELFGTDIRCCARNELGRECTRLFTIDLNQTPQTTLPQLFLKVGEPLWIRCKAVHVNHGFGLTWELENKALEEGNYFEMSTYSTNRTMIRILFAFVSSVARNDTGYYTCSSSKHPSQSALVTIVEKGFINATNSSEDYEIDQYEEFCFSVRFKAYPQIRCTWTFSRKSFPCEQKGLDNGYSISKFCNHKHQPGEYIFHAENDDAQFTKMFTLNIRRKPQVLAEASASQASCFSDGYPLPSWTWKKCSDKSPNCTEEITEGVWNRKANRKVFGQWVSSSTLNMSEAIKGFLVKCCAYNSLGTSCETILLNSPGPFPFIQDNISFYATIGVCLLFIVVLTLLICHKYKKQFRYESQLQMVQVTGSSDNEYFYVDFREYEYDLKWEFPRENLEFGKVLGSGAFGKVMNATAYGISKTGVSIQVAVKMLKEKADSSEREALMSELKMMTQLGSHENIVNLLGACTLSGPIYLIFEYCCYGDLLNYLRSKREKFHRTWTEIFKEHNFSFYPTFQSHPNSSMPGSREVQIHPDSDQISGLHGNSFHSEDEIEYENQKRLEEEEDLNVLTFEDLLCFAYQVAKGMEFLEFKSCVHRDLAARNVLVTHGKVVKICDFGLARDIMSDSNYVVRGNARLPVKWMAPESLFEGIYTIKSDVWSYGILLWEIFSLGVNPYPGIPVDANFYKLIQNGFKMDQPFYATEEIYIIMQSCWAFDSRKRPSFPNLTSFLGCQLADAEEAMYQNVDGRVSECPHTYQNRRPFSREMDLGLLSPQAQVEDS
Briefly: FLT3 Inhibition Assay. The experiment is classed as biochemical. The settings on record: FL Peptide 2 substrate, 30 min preincubation, 90 min at room temperature, Caliper EZ reader. As to the method: Starting with a 10 mM stock solution, each test compound was serially diluted into 10 concentrations by 3-fold dilution using TECAN EVO200. 60 nL of each stock was transferred to a 384 plate using Echo550.
Solution 1 was prepared as the table above and used to dilute the FLT3, ATP and FL2 stock to 0.9379 nM (1.33×), 400 μM (4×) and 6 μM (4×) respectively. The FLT3 solution (15 μL) at 25° C. was added to each well, shaken for 1 min and preincubated with test compound and controls for 30 min. To each well, 5 μL of ATP and FL-Peptide2 solutions, as prepared above, were added and the plate was shaken for 10 seconds, then spun briefly at 1000 rpm, then incubated for 90 minutes at room temperature. The plate was read on Caliper EZ reader, and the IC50 values were calculated using XLfit (equation below).
[formula] • LumSample: Test compound signal • LumLC: Low control signal • LumHC: High control signal

For `CN1CCC[C@@H]1c1cc2cnc(NC(=O)c3ccc(-c4c[nH]nc4F)cc3)cc2[nH]1` [Example 9, (R)-4-(5-fluoro-1H-pyrazol-4-yl)-N-(2-(1-methylpyrrolidin-2-yl)-1H-pyrrolo[3,2-c]pyridin-6-yl)benzamide], the IC50 on ENL YEATS domain came to 73 nM; in experiment [1] it was 176 nM.
`CN1CCC[C@@H]1c1cc2cnc(NC(=O)c3ccc(-c4cn[nH]c4)cc3)cc2[nH]1` [Example 5, (R)-N-(2-(1-methylpyrrolidin-2-yl)-1H-pyrrolo[3,2-c]pyridin-6-yl)-4-(1H-pyrazol-4-yl)benzamide]: the results for the IC50 (at ENL YEATS domain; in experiment [1]; at FLT3) were 46 nM, 79 nM and 274 nM, respectively.
Turning to `COCc1n[nH]cc1-c1ccc(C(=O)Nc2cc3[nH]c([C@H]4CCCN4C)cc3cn2)cc1` [Example 8, (R)-4-(5-(methoxymethyl)-1H-pyrazol-4-yl)-N-(2-(1-methylpyrrolidin-2-yl)-1H-pyrrolo[3,2-c]pyridin-6-yl)benzamide], the IC50 on ENL YEATS domain was 179 nM; in experiment [1] it was 357 nM.
As to `Cc1cc2cnc(NC(=O)c3ccc(-c4cn[nH]c4)cn3)cc2[nH]1` [Example 1, N-(2-methyl-1H-pyrrolo[3,2-c]pyridin-6-yl)-5-(1H-pyrazol-4-yl)picolinamide], the values for the IC50 (in experiment [1]; against FLT3) were 40 nM and 7 nM, respectively.
With `CN1CCCC[C@@H]1c1cc2cnc(NC(=O)c3ccc(-c4cn[nH]c4)cc3)cc2[nH]1` [Example 6, (R)-N-(2-(1-methylpiperidin-2-yl)-1H-pyrrolo[3,2-c]pyridin-6-yl)-4-(1H-pyrazol-4-yl)benzamide], the results for the IC50 (at ENL YEATS domain; in experiment [1]) were 64 nM and 138 nM, respectively.
The like results for `CN1CCC[C@@H]1c1cc2cnc(NC(=O)c3ccc(-c4cn[nH]c4)cc3F)cc2[nH]1` [Example 4, (R)-2-fluoro-N-(2-(1-methylpyrrolidin-2-yl)-1H-pyrrolo[3,2-c]pyridin-6-yl)-4-(1H-pyrazol-4-yl)benzamide] were, in that order, 67 nM and 119 nM.
For `CN1CCCC[C@@H]1c1cc2cnc(NC(=O)c3ccc(-c4cn[nH]c4)cn3)cc2[nH]1` [Example 7, (R)-N-(2-(1-methylpiperidin-2-yl)-1H-pyrrolo[3,2-c]pyridin-6-yl)-5-(1H-pyrazol-4-yl)picolinamide], the IC50 in experiment [1] came to 36 nM.
In the case of `CN1CCC[C@@H]1c1cc2cnc(NC(=O)c3ccc(-c4cn[nH]c4)cn3)cc2[nH]1` [Example 2, (R)-N-(2-(1-methylpyrrolidin-2-yl)-1H-pyrrolo[3,2-c]pyridin-6-yl)-5-(1H-pyrazol-4-yl)picolinamide], the IC50 was determined as 19 nM in experiment [1] and 7 nM against FLT3.
In the case of `CN1CCC[C@H]1c1cc2cnc(NC(=O)c3ccc(-c4cn[nH]c4)cn3)cc2[nH]1` [Example 3, (S)-N-(2-(1-methylpyrrolidin-2-yl)-1H-pyrrolo[3,2-c]pyridin-6-yl)-5-(1H-pyrazol-4-yl)picolinamide], the values for the IC50 (in experiment [1]; on FLT3) were 83 nM and 13 nM, respectively.

The values are drawn from patent US20260078121A1, “INHIBITORS OF ENL/AF9 YEATS AND FLT3” (Bridge Medicines, priority 2022, published 2026).
